Here are results for 35 compounds from patent USRE48711E1, “Apoptosis signal-regulating kinase inhibitors” (Gilead Sciences, Inc., priority 2009, dated 2021).

Molecules are shown by their SMILES.

Sequence of ASK1 (Apoptosis Signal-Regulating Kinase 1) (Q99683 649-946): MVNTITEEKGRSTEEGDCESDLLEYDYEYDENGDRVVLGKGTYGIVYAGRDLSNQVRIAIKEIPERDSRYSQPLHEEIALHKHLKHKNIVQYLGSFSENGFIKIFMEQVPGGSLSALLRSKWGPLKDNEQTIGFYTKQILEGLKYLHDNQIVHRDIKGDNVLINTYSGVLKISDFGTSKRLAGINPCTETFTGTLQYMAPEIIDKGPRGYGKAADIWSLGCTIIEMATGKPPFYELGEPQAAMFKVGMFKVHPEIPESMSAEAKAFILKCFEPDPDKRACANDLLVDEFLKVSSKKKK

The assay addresses ASK1 (Apoptosis Signal-Regulating Kinase 1) (Homo sapiens (Human), UniProt Q99683). The experiment in a line: ASK1 (Apoptosis Signal-Regulating Kinase 1) TR-FRET Kinase Assay (Biochemical IC50). The following applies: TR-FRET, biotin-MBP substrate, 20 min pre-incubation, ATP added as 300 μM solution. (Time-resolved FRET reads energy transfer from a long-lived donor to a nearby acceptor.)
Experimental: The ability of compounds to inhibit ASK1 kinase activity was determined using a time resolved fluorescence resonance energy transfer [TR-FRET] assay utilizing biotinylated myelin basic protein [biotin-MBP] as the protein substrate. […] The enzyme was allowed to pre-incubate with compound for 20 minutes prior to initiating the kinase reaction with the addition of 5 μL/well 300 μM ATP in buffer (50 mM MOPS, pH 7.0, 5 mM Mg-acetate, 1 mM DTT, 5% DMSO) using the Decrac Fluidics Equator. The kinase reactions were allowed to proceed for 20 minutes at ambient temperature and were subsequently stopped with the addition of 5 μL/well 25 mM EDTA using the Deerac Fluidics Equator. […] The TR-FRET signal was then read on a Perkin. Elmer Envision plate reader after incubating the plates at ambient temperature for 2 hours.
What is called IC50 is the concentration at which inhibition is half-maximal. A low value points to greater potency. As for `O=C(Nc1cccc(-c2nncn2C2CC2)c1)c1cc(-c2ccc(C(F)(F)F)nc2)ccn1` [Example 52, N-(3-(4-cyclopropyl-4H-1,2,4-triazol-3-yl)phenyl)-6-(trifluoromethyl)-3,4′-bipyridine-2′-carboxamide], the IC50 is 12 nM.

The compound `CCN1CCN(c2ccnc(C(=O)Nc3cccc(-c4nncn4C4CC4)c3)c2)CC1=O` [Example 177, N-(3-(4-cyclopropyl-4H-1,2,4-triazol-3-yl)phenyl)-4-(4-ethyl-3-oxopiperazin-1-yl)picolinamide] gave an IC50 of 47 nM.

As to `Cn1cnnc1-c1cccc(NC(=O)c2cncc(-c3cccnc3)c2)c1` [Example 8, N-(3-(4-methyl-4H-1,2,4-triazol-3-yl)phenyl)-3,3′-bipyridine-5-carboxamide], the IC50 came to 220 nM. This IC50 lies about 4.7-fold higher than the previous one.

For the compound `O=C(Nc1cccc(-c2nncn2C2CC2)c1)c1cc(-c2cnc3ccn(CC(F)(F)F)c3c2)ccn1` [Example 244, N-(3-(4-cyclopropyl-4H-1,2,4-triazol-3-yl)phenyl)-4-(1-(2,2,2-trifluoroethyl)-1H-pyrrolo[3,2-b]pyridin-6-yl)picolinamide], half-maximal inhibition (IC50) required 25 nM.

The compound `O=C(Nc1cccc(-c2nncn2C2CC2)c1)c1cc(-c2cnc3ccoc3c2)ccn1` [Example 142, N-(3-(4-cyclopropyl-4H-1,2,4-triazol-3-yl)phenyl)-4-(furo[3,2-b]pyridin-6-yl)picolinamide] displayed a 50% inhibitory concentration (IC50) of 11 nM.

As to `C[C@@H](C1CC1)n1cnnc1-c1cccc(NC(=O)c2cc(-c3ccc(C4CC4)nc3)ccn2)c1` [Example 230, (S)-6-cyclopropyl-N-(3-(4-(1-cyclopropylethyl)-4H-1,2,4-triazol-3-yl)phenyl)-3,4′-bipyridine-2′-carboxamide], the half-maximal inhibitory concentration (IC50) turned out to be 58 nM.

Take `Cn1cnnc1-c1cccc(NC(=O)c2cc(N3CCNC(=O)C3)ccn2)c1` [Example 32, N-(3-(4-methyl-4H-1,2,4-triazol-3-yl)phenyl)-4-(3-oxopiperazin-1-yl)picolinamide]: the IC50 was 569 nM.

Turning to `O=C(Nc1cccc(-c2nncn2C2CC2)c1)c1cc(-c2cncc(Cl)c2)ccn1` [Example 76, 5-chloro-N-(3-(4-cyclopropyl-4H-1,2,4-triazol-3-yl)phenyl)-3,4′-bipyridine-2′-carboxamide], the IC50 was 34 nM. This IC50 lies about 17-fold lower than the previous one.

On to `O=C(Nc1cccc(-c2nncn2C2CC2)c1)c1cc(-c2cccnc2)ccn1` [Example 15, N-(3-(4-cyclopropyl-4H-1,2,4-triazol-3-yl)phenyl)-3,4′-bipyridine-2′-carboxamide], for which the half-maximal inhibitory concentration (IC50) was determined as 11 nM.

Consider `CC(O)c1nnc(-c2ccnc(C(=O)Nc3cccc(-c4nncn4C4CC4)c3)c2)o1` (centres unmarked) [Example 252, N-(3-(4-cyclopropyl-4H-1,2,4-triazol-3-yl)phenyl)-4-(5-(1-hydroxyethyl)-1,3,4-oxadiazol-2-yl)picolinamide], for which the IC50 is 3410 nM.

In turn, `O=C(Nc1cccc(-c2nncn2C2CC2)c1)c1cc(-n2cnc(Cl)c2)ccn1` [Example 122, 4-(4-chloro-1H-imidazol-1-yl)-N-(3-(4-cyclopropyl-4H-1,2,4-triazol-3-yl)phenyl)picolinamide] showed a 50% inhibitory concentration (IC50) of 17 nM.

As to `CC(C)(O)c1ccc(-c2cccc(C(=O)Nc3cccc(-c4nncn4C4CC4)n3)c2)cn1` [Example 204, N-(6-(4-cyclopropyl-4H-1,2,4-triazol-3-yl)pyridin-2-yl)-3-(6-(2-hydroxypropan-2-yl)pyridin-3-yl)benzamide], it took 17 nM to reach half-maximal inhibition (IC50).

`O=C(Nc1cccc(-c2nncn2CC2CC2)c1)c1cc(-n2cnc(C3CC3)c2)ccn1` [Example 185, 4-(4-cyclopropyl-1H-imidazol-1-yl)-N-(3-(4-(cyclopropylmethyl)-4H-1,2,4-triazol-3-yl)phenyl)picolinamde] displayed an IC50 of 34 nM.

Compound `O=C(Nc1cccc(-c2nncn2C2CC2)c1)c1cc(-c2ccc(O)nc2)ccn1` [Example 31, N-(3-(4-cyclopropyl-4H-1,2,4-triazol-3-yl)phenyl)-6-hydroxy-3,4′-bipyridine-2′-carboxamide] returned an IC50 of 63 nM.

In turn, `Cc1cn(-c2ccnc(C(=O)Nc3cccc(-c4nncn4C4CC4)c3)c2)cn1` [Example 42, N-(3-(4-cyclopropyl-4H-1,2,4-triazol-3-yl)phenyl)-4-(4-methyl-1H-imidazol-1-yl)picolinamide] gave an IC50 of 11 nM.

`O=C(Nc1cccc(-c2nncn2C2CC2)n1)c1cccc(-c2cccnc2)c1` [Example 130, N-(6-(4-cyclopropyl-4H-1,2,4-triazol-3-yl)pyridin-2-yl)-3-(pyridin-3-yl)benzamide] showed an IC50 of 12 nM. This IC50 and that of the compound before are within 1.5-fold of each other.

As to `O=C(Nc1cccc(-c2nncn2C2CC2)c1)c1cc(-c2ccc(C3CCC3)nc2)ccn1` [Example 103, 6-cyclobutyl-N-(3-(4-cyclopropyl-4H-1,2,4-triazol-3-yl)phenyl)-3,4′-bipyridine-2′-carboxamide], the IC50 is 11 nM.

`O=C(Nc1cccc(-c2nncn2C2CC2)c1)c1cc(-c2cncc(F)c2)ccn1` [Example 60, N-(3-(4-cyclopropyl-4H-1,2,4-triazol-3-yl)phenyl)-5-fluoro-3,4′-bipyridine-2′-carboxamide] registered a half-maximal inhibitory concentration (IC50) of 23 nM.

In turn, `CN1CCc2ncc(-c3ccnc(C(=O)Nc4cccc(-c5nncn5C5CC5)c4)c3)cc2C1` [Example 173, N-(3-(4-cyclopropyl-4H-1,2,4-triazol-3-yl)phenyl)-4-(6-methyl-5,6,7,8-tetrahydro-1,6-naphthyridin-3-yl)picolinamide] came in with an IC50 of 21 nM.

In the case of `O=C(Nc1cccc(-c2nncn2C2CC2)c1)c1cc(-n2cnc3ncccc32)ccn1` [Example 81, N-(3-(4-cyclopropyl-4H-1,2,4-triazol-3-yl)phenyl)-4-(1H-imidazo[4,5-b]pyridin-1-yl)picolinamide], the IC50 turned out to be 16 nM.

In turn, `O=C(Nc1cccc(-c2cncn2C2CC2)n1)c1cc(-c2ccc(C3CC3)nc2)ccn1` [Example 127, 6-cyclopropyl-N-(6-(1-cyclopropyl-1H-imidazol-5-yl)pyridin-2-yl)-3,4′-bipyridine-2′-carboxamide] registered an IC50 of 211 nM.

With `Cn1cnnc1-c1cccc(NC(=O)c2cc(-c3ccccc3)ccn2)c1` [Example 4, N-(3-(4-methyl-4H-1,2,4-triazol-3-yl)phenyl)-4-phenylpicolinamide], the IC50 is 701 nM.

Consider `O=C(Nc1cccc(-c2nncn2C2CC2)c1F)c1cc(-c2ccc(C3CC3)nc2)ccn1` [Example 155, 6-cyclopropyl-N-(3-(4-cyclopropyl-4H-1,2,4-triazol-3-yl)-2-fluorophenyl)-3,4′-bipyridine-2′-carboxamide], for which the half-maximal inhibitory concentration (IC50) came out at 10 nM. Against the preceding compound, the IC50 is about 70-fold lower.

On to `Cn1cncc1-c1ccnc(C(=O)Nc2cccc(-c3nncn3C3CC3)c2)c1` [Example 36, N-(3-(4-cyclopropyl-4H-1,2,4-triazol-3-yl)phenyl)-4-(1-methyl-1H-imidazol-5-yl)picolinamide], for which inhibition was half-maximal at 18 nM (IC50).

For the compound `O=C(Nc1cccc(-c2nncn2C2CC2)c1)c1cc(-c2cnc3scnn23)ccn1` [Example 121, N-(3-(4-cyclopropyl-4H-1,2,4-triazol-3-yl)phenyl)-4-(imidazo[2,1-b][1,3,4]thiadiazol-5-yl)picolinamide], the IC50 stood at 47 nM.

Turning to `CCN1CCN(c2ccnc(C(=O)Nc3cccc(-c4nncn4C4CC4)n3)c2)CC1=O` [Example 178, N-(6-(4-cyclopropyl-4H-1,2,4-triazol-3-yl)pyridin-2-yl)-4-(4-ethyl-3-oxopiperazin-1-yl)picolinamide], the IC50 was 7 nM.

`COC[C@H](C)n1cnnc1-c1cccc(NC(=O)c2cc(-c3ccc(C4CC4)nc3)ccn2)n1` [Example 234, (S)-6-cyclopropyl-N-(6-(4-(1-methoxypropan-2-yl)-4H-1,2,4-triazol-3-yl)pyridin-2-yl)-3,4′-bipyridine-2′-carboxamide] returned an IC50 of 8 nM.

Consider `O=C(Nc1cccc(-c2nncn2C2CC2)c1)c1cc(-c2ccccc2)ccn1` [Example 14, N-(3-(4-cyclopropyl-4H-1,2,4-triazol-3-yl)phenyl)-4-phenylpicolinamide], for which the IC50 was found to be 279 nM.

`O=C(Nc1cccc(-c2nncn2C2CC2)c1)c1cc(-c2cnc(C3CC3)c(F)c2)ccn1` [Example 134, 6-cyclopropyl-N-(3-(4-cyclopropyl-4H-1,2,4-triazol-3-yl)phenyl)-5-fluoro-3,4′-bipyridine-2′-carboxamide] yielded an IC50 of 34 nM.

As to `Cn1cnnc1-c1cccc(NC(=O)c2cc(N3CCC(N)C3)ccn2)c1` (centres unmarked) [Example 33, 4-(3-aminopyrrolidin-1-yl)-N-(3-(4-methyl-4H-1,2,4-triazol-3-yl)phenyl)picolinamide], the IC50 was determined as 3480 nM.

With `COc1ncc(-c2ccnc(C(=O)Nc3cccc(-c4nncn4C4CC4)c3)c2)c(OC)n1` [Example 49, N-(3-(4-cyclopropyl-4H-1,2,4-triazol-3-yl)phenyl)-4-(2,4-dimethoxypyrimidin-5-yl)picolinamide], 8 nM corresponded to half-maximal inhibition (IC50). Compared with the last compound, the IC50 is about 440-fold lower.

The compound `O=C(Nc1cccc(-c2nncn2C2CC2)n1)c1cccc(-c2ccc(C3CC3)nc2)n1` [Example 258, 6′-cyclopropyl-N-(6-(4-cyclopropyl-4H-1,2,4-triazol-3-yl)pyridin-2-yl)-2,3′-bipyridine-6-carboxamide] came in with an IC50 of 852 nM.

For the compound `CC[C@H](C)n1cnnc1-c1cccc(NC(=O)c2cc(-c3ccc(C4CC4)nc3)ccn2)c1` [Example 237, (S)-N-(3-(4-sec-butyl-4H-1,2,4-triazol-3-yl)phenyl)-6-cyclopropyl-3,4′-bipyridine-2′-carboxamide], the IC50 came to 38 nM.

On to `CSc1ccc(-c2ccnc(C(=O)Nc3cccc(-c4nncn4C4CC4)c3)c2)cn1` [Example 131, N-(3-(4-cyclopropyl-4H-1,2,4-triazol-3-yl)phenyl)-6-(methylthio)-3,4′-bipyridine-2′-carboxamide], for which the 50% inhibitory concentration (IC50) is 11 nM.

`Cc1ccc(-c2ccnc(C(=O)Nc3cccc(-c4nncn4C4CC4)c3)c2)cn1` [Example 53, N-(3-(4-cyclopropyl-4H-1,2,4-triazol-3-yl)phenyl)-6-methyl-3,4′-bipyridine-2′-carboxamide]: the IC50 worked out at 11 nM.
